The numbers were not newly measured in US6506600B2, “Secreting products from skin by adeno-associated virus (AAV) gene transfer” (University of Arkansas, priority 2000, dated 2003), which cites them from elsewhere.

In one series the test system is neutrophil count. The conditions noted are these: patients with neutropenia due to chemotherapy; initial dose 5 microg/kg/day.
Series [1] concerns pulmonary alveolar proteinosis. The conditions noted are these: four PAP patients; subcutaneous once daily for 12 wk, 3 to 9 μg/kg/d.
The test system of another series is neutropenia. Conditions: neonates <32 weeks gestation; 10 μg/kg/d subcutaneous for 5 days.

In the case of “granulocyte macrophage colony stimulating factor [GM-CSF]”, the “rise of neutrophil count (median)” value in the series with neutrophil count was 6.6 fold. In series [1], the “symptomatic, physiologic and radiographic response” value was “Three of the four patients experienced symptomatic, physiologic, and radiographic improvement”. For the same substance, under “serum”, the serum half-life is 8 h. For the same substance, the effect on neutropenia entry with neutropenia is “completely abolished neutropenia”.

As for hGH: human growth hormone, 22 kDa, the t1/2 (in vivo) was 4 min.
